Key:
Type in all cases: in vivo
[1] = system: Pseudoperonospora cubensis; assay: Test 2: control effect against cucumber downy mildew; details: Pseudoperonospora cubensis, 120 h, control value vs untreated section
How it was run: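 Cucumber (Sagami hanjiro) at 2-leaf stage sprayed with 4 ppm compound from 10% wettable powder in Tween20 (1/5000); inoculated next day with P. cubensis zoospores, 1.0×10^4 units/ml, 16 hr moist chamber at 22° C. Lesion area rate scored 5 days post-inoculation; control value = (1 − treated/untreated onset area rate)×100.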

Plasmopara viticola = assay: Test 3: control effect against grape downy mildew; details: Plasmopara viticola, 120 h, control value vs untreated section
How it was run: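 Neomuscat grape seedlings were sprayed with compound at 4 ppm, diluted from a 10% wettable powder in Tween20 solution. One day later they were inoculated with Plasmopara viticola zoospores at 1.0×10^4 units/ml and held moist at 22° C. for 16 hr. Control value was derived from leaf lesion area at 5 days versus untreated leaves.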

Pythium graminicola = assay: Test 4: control effect against rice damping-off by the Pythium fungus (soil lavage); details: 1,000 ppm, 2.5 ml test suspension drenched on contaminated soil, rice (koshihikari)
How it was run: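 Compound at 1,000 ppm in 1/5000 Tween20 was drenched (2.5 ml) onto Koshihikari rice seeds, 3 pre-sprouted seeds per cell, sown in soil infested with Pythium graminicola (5 g/kg). Regime: 28 °C for 72 h, 5 °C for 2 days, then 25 °C for 14 days. Dead and stunted seedlings were scored into an onset rate, and control value = (1 − treated/untreated) × 100.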

Phytophthora infestans = assay: whole plant or invertebrate; details: Phytophthora infestans, in Solanum lycopersicum, 96 h, read-out: control value (Test 1)

Row | SMILES | pest or weed control at 4 µg/mL [1] [%] | pest or weed control at 4 µg/mL (Plasmopara viticola) [%] | pest or weed control at 1000 ppm (Pythium graminicola) [%] | pest or weed control at 4 µg/mL (Phytophthora infestans) [%]
1 | O=C(Cn1nc(C(F)F)cc1C(F)F)N1CCC(c2nc(C3OCc4ccc([N+](=O)[O-])cc4CO3)cs2)CC1 (stereo not shown) [Compound 1-49, 4-[4-(7-nitro-1,5-dihydro-3H-2,4-benzodioxepin-3-yl)-2-thiazolyl]-1-[2-[3,5-bis(difluoromethyl)-1H-pyrazole-1-yl]acetyl]piperidine] | 100 | 100 | ≥ 90 | 100
2 | O=C(Cc1cc(Cl)ccc1Cl)N1CCC(c2nc(C3OCc4cccc(Cl)c4CO3)cs2)CC1 (stereo not shown) [Compound 2-22, 4-[4-(6-chloro-1,5-dihydro-3H-2,4-benzodioxepin-3-yl)-2-thiazolyl]-1-[2-(2,5-dichlorophenyl)acetyl]piperidine] | 100 | 100 | ≥ 90 | 100
3 | Cc1cc(C(F)(F)F)nn1CC(=O)N1CCC(c2nc(C3OCc4ccc(F)c(OS(C)(=O)=O)c4CO3)cs2)CC1 (stereo not shown) [Compound 1-45, 4-[4-(7-fluoro-6-methylsulfonyloxy-1,5-dihydro-3H-2,4-benzodioxepin-3-yl)-2-thiazolyl]-1-[2-[5-methyl-3-(trifluoromethyl)-1H-pyrazole-1-yl]acetyl]piperidine] | 100 | 100 | ≥ 90 | 100
4 | Cc1cc(C(F)(F)F)nn1CC(=O)N1CCC(c2nc(C3OCc4ccc(F)cc4CO3)cs2)CC1 (stereo not shown) [Compound 1-11, 4-[4-(7-fluoro-1,5-dihydro-3H-2,4-benzodioxepin-3-yl)-2-thiazolyl]-1-[2-[5-methyl-3-(trifluoromethyl)-1H-pyrazole-1-yl]acetyl]piperidine] | 100 | 100 | ≥ 90 | 100
5 | Cc1cc(C(F)(F)F)nn1CC(=O)N1CCC(c2nc(C3OCc4cccc(OC(=O)C5CC5)c4CO3)cs2)CC1 (stereo not shown) [Compound 1-34, 4-[4-(6-cyclopropylcarbonyloxy-1,5-dihydro-3H-2,4-benzodioxepin-3-yl)-2-thiazolyl]-1-[2-[5-methyl-3-(trifluoromethyl)-1H-pyrazole-1-yl]acetyl]piperidine] | 100 | 100 | ≥ 90 | 100
6 | O=C(Cc1cc(Cl)ccc1Cl)N1CCC(c2nc(C3OCc4c(F)c(F)c(F)c(F)c4CO3)cs2)CC1 [Compound 2-29, 4-[4-(6,7,8,9-tetrafluoro-1,5-dihydro-3H-2,4-benzodioxepin-3-yl)-2-thiazolyl]-1-[2-(2,5-dichlorophenyl)acetyl]piperidine] | 100 | 100 | ≥ 90 | 100
7 | O=C(Cn1nc(C(F)F)cc1C(F)F)N1CCC(c2nc(C3OCc4c(F)ccc(F)c4CO3)cs2)CC1 [Compound 1-51, 4-[4-(6,9-difluoro-1,5-dihydro-3H-2,4-benzodioxepin-3-yl)-2-thiazolyl]-1-[2-[3,5-bis(difluoromethyl)-1H-pyrazole-1-yl]acetyl]piperidine] | 100 | 100 | ≥ 90 | 100
8 | Cc1cc(C(F)(F)F)nn1CC(=O)N1CCC(c2nc(C3OCc4cccc(C=NO)c4CO3)cs2)CC1 (stereo not shown) [Compound 1-96, 4-[4-[6-(hydroxyimino)methyl-1,5-dihydro-3H-2,4-benzodioxepin-3-yl]-2-thiazolyl]-1-[2-[5-methyl-3-(trifluoromethyl)-1H-pyrazole-1-yl]acetyl]piperidine] | 100 | 100 | ≥ 90 | 100
9 | Cc1ccc(C)c(CC(=O)N2CCC(c3nc(C4OCc5cccc([N+](=O)[O-])c5CO4)cs3)CC2)c1 (stereo not shown) [Compound 2-39, 4-[4-(6-nitro-1,5-dihydro-3H-2,4-benzodioxepin-3-yl)-2-thiazolyl]-1-[2-(2,5-dimethylphenyl)acetyl]piperidine] | 100 | 100 | ≥ 90 | 100
10 | CC(C)(C)c1ccc2c(c1)COC(c1csc(C3CCN(C(=O)Cn4nc(C(F)F)cc4C(F)F)CC3)n1)OC2 (stereo not shown) [Compound 1-78, 4-[4-(7-tert-butyl-1,5-dihydro-3H-2,4-benzodioxepin-3-yl)-2-thiazolyl]-1-[2-[3,5-bis(difluoromethyl)-1H-pyrazole-1-yl]acetyl]piperidine] | 100 | 100 | ≥ 90 | 100
11 | Cc1cc(C(F)(F)F)nn1CC(=O)N1CCC(c2nc(C3OCc4cccc(OS(=O)(=O)C(F)(F)F)c4CO3)cs2)CC1 (stereo not shown) [Compound 1-36, 4-[4-[6-(trifluoromethyl)sulfonyloxy-1,5-dihydro-3H-2,4-benzodioxepin-3-yl]-2-thiazolyl]-1-[2-[5-methyl-3-(trifluoromethyl)-1H-pyrazole-1-yl]acetyl]piperidine] | 100 | 100 | ≥ 90 | 100
12 | Cc1cc(C(F)(F)F)nn1CC(=O)N1CCC(c2nc(C3OCc4cccc(CCl)c4CO3)cs2)CC1 (stereo not shown) [Compound 1-69, 4-[4-[6-(chloromethyl)-1,5-dihydro-3H-2,4-benzodioxepin-3-yl]-2-thiazolyl]-1-[2-[5-methyl-3-(trifluoromethyl)-1H-pyrazole-1-yl]acetyl]piperidine] | 60 | 100 | ≥ 90 | 100
13 | COc1ccc(C)c2c1COC(c1csc(C3CCN(C(=O)Cc4cc(C)ccc4C)CC3)n1)OC2 (stereo not shown) [Compound 2-45, 4-[4-(6-methoxy-9-methyl-1,5-dihydro-3H-2,4-benzodioxepin-3-yl)-2-thiazolyl]-1-[2-(2,5-dimethylphenyl)acetyl]piperidine] | 100 | 100 | ≥ 90 | 90
14 | O=C(Cn1nc(C(F)(F)F)cc1C(F)(F)F)N1CCC(c2nc(C3OCc4ccc([N+](=O)[O-])cc4CO3)cs2)CC1 (stereo not shown) [Compound 1-95, 4-[4-(7-nitro-1,5-dihydro-3H-2,4-benzodioxepin-3-yl)-2-thiazolyl]-1-[2-[3,5-bis(trifluoromethyl)-1H-pyrazole-1-yl]acetyl]piperidine] | 100 | 100 | ≥ 90 | 100
15 | COc1ccc(Cl)c2c1COC(c1csc(C3CCN(C(=O)Cc4cc(Cl)ccc4Cl)CC3)n1)OC2 (stereo not shown) [Compound 2-23, 4-[4-(6-chloro-9-methoxy-1,5-dihydro-3H-2,4-benzodioxepin-3-yl)-2-thiazolyl]-1-[2-(2,5-dichlorophenyl)acetyl]piperidine] | 100 | 100 | ≥ 90 | 100
16 | COc1ccc(Cl)c2c1COC(c1csc(C3CCN(C(=O)Cc4cc(C)ccc4C)CC3)n1)OC2 (stereo not shown) [Compound 2-20, 4-[4-(6-chloro-9-methoxy-1,5-dihydro-3H-2,4-benzodioxepin-3-yl)-2-thiazolyl]-1-[2-(2,5-dimethylphenyl)acetyl]piperidine] | 100 | 100 | ≥ 90 | 100
17 | CCCCS(=O)(=O)Oc1cccc2c1COC(c1csc(C3CCN(C(=O)Cn4nc(C(F)(F)F)cc4C)CC3)n1)OC2 (stereo not shown) [Compound 1-21, 4-[4-(6-butylsulfonyloxy-1,5-dihydro-3H-2,4-benzodioxepin-3-yl)-2-thiazolyl]-1-[2-[5-methyl-3-(trifluoromethyl)-1H-pyrazole-1-yl]acetyl]piperidine] | 100 | 100 | ≥ 90 | 90
18 | Cc1cc(C(F)(F)F)nn1CC(=O)N1CCC(c2nc(C3OCc4cccc(OS(=O)(=O)N(C)C)c4CO3)cs2)CC1 (stereo not shown) [Compound 1-90, 4-[4-[6-(dimethylaminosulfonyloxy)-1,5-dihydro-3H-2,4-benzodioxepin-3-yl]-2-thiazolyl]-1-[2-[5-methyl-3-(trifluoromethyl)-1H-pyrazole-1-yl]acetyl]piperidine] | 100 | 100 | ≥ 90 | 100
19 | Cc1cc(C(F)(F)F)nn1CC(=O)N1CCC(c2nc(C3OCc4cccc(OS(C)(=O)=O)c4CO3)cs2)CC1 (stereo not shown) [Compound 1-6, 4-[4-(6-methylsulfonyloxy-1,5-dihydro-3H-2,4-benzodioxepin-3-yl)-2-thiazolyl]-1-[2-[5-methyl-3-(trifluoromethyl)-1H-pyrazole-1-yl]acetyl]piperidine] | 100 | 100 | ≥ 90 | 100

— patent publication US10104891B2 (priority 2014, dated 2018)
